# Where a name gives a salt, the structure may show the parent alone.
# Target: T1, TLR7/NFKb HEK cells (Homo sapiens, UniProt Q9NYK1)
# T1 construct: expressed in transfected cells; host or cells: HEK cells (TLR7/NFKb reporter line)
# T1 sequence (Q9NYK1 27-1049): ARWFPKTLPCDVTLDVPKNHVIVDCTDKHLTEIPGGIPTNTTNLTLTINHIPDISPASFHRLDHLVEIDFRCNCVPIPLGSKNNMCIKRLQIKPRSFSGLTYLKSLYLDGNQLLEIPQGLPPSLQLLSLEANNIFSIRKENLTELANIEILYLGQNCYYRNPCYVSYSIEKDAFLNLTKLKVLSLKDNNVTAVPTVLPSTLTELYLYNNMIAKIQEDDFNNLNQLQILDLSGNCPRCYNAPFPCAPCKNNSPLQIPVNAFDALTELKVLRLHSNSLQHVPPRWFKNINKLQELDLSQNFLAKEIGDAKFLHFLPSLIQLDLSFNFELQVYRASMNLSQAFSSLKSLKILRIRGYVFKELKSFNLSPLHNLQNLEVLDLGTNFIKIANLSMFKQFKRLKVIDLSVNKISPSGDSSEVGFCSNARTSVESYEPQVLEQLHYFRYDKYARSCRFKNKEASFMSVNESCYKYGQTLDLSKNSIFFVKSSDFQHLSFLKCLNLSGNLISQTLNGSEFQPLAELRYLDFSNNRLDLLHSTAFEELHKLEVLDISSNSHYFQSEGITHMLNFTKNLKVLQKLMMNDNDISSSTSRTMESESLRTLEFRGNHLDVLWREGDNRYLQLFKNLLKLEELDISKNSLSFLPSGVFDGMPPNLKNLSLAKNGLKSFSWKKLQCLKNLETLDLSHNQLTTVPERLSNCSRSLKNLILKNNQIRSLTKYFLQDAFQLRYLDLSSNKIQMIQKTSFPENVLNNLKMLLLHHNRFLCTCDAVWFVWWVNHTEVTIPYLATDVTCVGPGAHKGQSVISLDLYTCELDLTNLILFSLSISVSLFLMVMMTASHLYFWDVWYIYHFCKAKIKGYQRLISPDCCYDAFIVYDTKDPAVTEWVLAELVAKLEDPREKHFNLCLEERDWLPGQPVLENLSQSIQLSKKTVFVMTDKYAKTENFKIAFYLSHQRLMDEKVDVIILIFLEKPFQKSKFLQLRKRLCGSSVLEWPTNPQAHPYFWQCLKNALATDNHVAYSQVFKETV
# Assay: HEK Cell Assay (TLR7/NFKb reporter, Steady-Glo luciferase readout)
# Assay type: cell-based
# Settings: 30 min compound preincubation, then R*48 agonist for 5 hours, read-out: Potency
# Procedure: Example 142: HEK Cell Assay
# Into 384 CulturePlates (Corning 3707) was placed 5000 c/w of TLR7/NFKb HEK cells in 30 uL DMEM without Phenil red (gibco #31053) and 10% i.a. FCS and 2 mM L-ZGLutamin. The cells were incubated for 24 h at 37° C., 10% carbon dioxide and 90% relative humidity. 3 uL of controls, standards, and compounds were dispensed into wells, incubated for 30 min then 3 uL of R*48 agonist in 20 mM Hepes was added. After incubation for 5 hours, they were allowed to stand at room temperature for 15 min. To this was added 10 uL of Steady-Glo substrate reagent and shake assay plate for 5 min at 1500 rpm. The assay plate was allowed to sit for 30 min at room temperature and then the plate was read on EnVision.
row,SMILES,IC50
1,"CC1CC(C(=O)NCC2CCN(C)CC2)CN(c2ccc(C#N)c3nccnc23)C1 (stereo not shown) [Compound 539, 1-(8-Cyano-quinoxalin-5-yl)-5-methyl-piperidine-3-carboxylic acid (1-methyl-piperidin-4-ylmethyl)-amide]",< 1000 nM
2,"Cc1cc(N2CCC(CNCCN3CCCCC3)CC2)c2cc(F)ccc2n1 [Compound 381, [1-(6-Fluoro-2-methyl-quinolin-4-yl)-piperidin-4-ylmethyl]-(2-piperidin-1-yl-ethyl)-amine]",1000 to 10000 nM
3,"CC(C)[C@H](O)C(=O)N[C@@H]1C[C@H](C)CN(c2ccc(C#N)c3nccnc23)C1 [Compound 20, (S)—N-((3R,5S)-1-(8-cyanoquinoxalin-5-yl)-5-methylpiperidin-3-yl)-2-hydroxy-3-methylbutanamide]",< 1000 nM
4,"C[C@H]1C[C@@H](NC(=O)CN2CC(O)C2)CN(c2ccc(C(F)F)c3nccnc23)C1 [Compound 320, N-[(3R,5S)-1-[8-(difluoromethyl)quinoxalin-5-yl]-5-methylpiperidin-3-yl]-2-(3-hydroxyazetidin-1-yl)acetamide]",1000 to 10000 nM
5,"CN1CCC(NC2CC(C(F)(F)F)CN(c3ccc(C#N)c4nccnc34)C2)C1=O (single isomer, unassigned) [Compound 224]",1000 to 10000 nM
6,"C[C@H]1C[C@@H](NC(=O)C2(N)CC2)CN(c2ccnc3nccnc23)C1 [Compound 30, 1-amino-N-((3R,5S)-5-methyl-1-(pyrido[2,3-b]pyrazin-8-yl)piperidin-3-yl)cyclopropanecarboxamide hydrochloride]",> 10000 nM
7,"Cc1ncc(N2C[C@@H](C)C[C@@H](NC(=O)CC3CN(C)C3)C2)c2cccnc12 [Compound 556, 2-(1-Methyl-azetidin-3-yl)-N-[(3R,5S)-5-methyl-1-(8-methyl-[1,7]naphthyridin-5-yl)-piperidin-3-yl]-acetamide]",1000 to 10000 nM
8,"C[C@H]1C[C@@H](NC(=O)CC(O)C(C)(C)C)CN(c2ccnc3nccnc23)C1 (single isomer, unassigned) [Compound 148]",> 10000 nM
9,"COc1ccc(N2C[C@@H](C)C[C@@H](NC(=O)C(N)C(F)(F)F)C2)c2cccnc12 (single isomer, unassigned) [Compound 191]",1000 to 10000 nM
10,"C[C@H]1C[C@@H](NC(=O)CC2CCN(C)CC2)CN(c2ccc(C(F)(F)F)c3nccnc23)C1 [Compound 253, N-[(3R,5S)-5-methyl-1-[8-(trifluoromethyl)quinoxalin-5-yl]piperidin-3-yl]-2-(1-methylpiperidin-4-yl)acetamide]",< 1000 nM
11,"CCC(C)C(=O)N[C@@H]1C[C@H](C)CN(c2ccnc3nccnc23)C1 (single isomer, unassigned) [Compound 156]",> 10000 nM
12,"N#Cc1ccc(N2CC(NC(=O)C(N)C3CC3)CC(C(F)(F)F)C2)c2cccnc12 (single isomer, unassigned) [Compound 487]",< 1000 nM
13,"C[C@H]1C[C@@H](NC(=O)CC2CCCN(C)C2)CN(c2ccc(C(F)F)c3ncccc23)C1 (stereo partly drawn) [Compound 303, N-[(3R,5S)-1-[8-(difluoromethyl)quinolin-5-yl]-5-methylpiperidin-3-yl]-2-(1-methylpiperidin-3-yl)acetamide]",< 1000 nM
14,"CC(C(=O)NC1CN(c2ccc(C#N)c3nccnc23)CC(F)(F)C1)N1CCC1 (single isomer, unassigned) [Compound 507]",< 1000 nM
15,"C[C@H]1C[C@@H](NC(=O)CO)CN(c2ccc(C(F)(F)F)c3ncccc23)C1 [Compound 240, 2-hydroxy-N-[(3R,5S)-5-methyl-1-[8-(trifluoromethyl)quinolin-5-yl]piperidin-3-yl]acetamide]",< 1000 nM
16,"C[C@H]1C[C@@H](NC(=O)NCCN(C)C)CN(c2ccc(C(F)(F)F)c3ncccc23)C1 [Compound 477, 1-(2-Dimethylamino-ethyl)-3-[(3R,5S)-5-methyl-1-(8-trifluoromethyl-quinolin-5-yl)-piperidin-3-yl]-urea]",< 1000 nM

row,SMILES,IC50
1,"CC1(C)C[C@@H](NC(=O)C(N)C(F)(F)F)CN(c2ccc(C#N)c3nccnc23)C1 (single isomer, unassigned) [Compound 211]",1000 to 10000 nM
2,"C[C@H]1C[C@@H](NC(=O)C2CC2(F)F)CN(c2ccc(C#N)c3nccnc23)C1 (stereo partly drawn) [Compound 165, N-[(3R,5S)-1-(8-cyanoquinoxalin-5-yl)-5-methylpiperidin-3-yl]-2,2-difluorocyclopropane-1-carboxamide]",< 1000 nM
3,"CC(C)[C@H](O)C(=O)N[C@@H]1C[C@H](C(F)(F)F)CN(c2ccnc3nccnc23)C1 [Compound 89, (2S)-2-hydroxy-3-methyl-N-[(3R,5S)-1-[pyrido[2,3-b]pyrazin-8-yl]-5-(trifluoromethyl)piperidin-3-yl]butanamide hydrochloride]",> 10000 nM
4,"C[C@H]1C[C@@H](NC(=O)CN(C)C)CN(c2ccc(C#N)c3ncncc23)C1 [Compound 447, N-[(3R,5S)-1-(8-Cyano-quinazolin-5-yl)-5-methyl-piperidin-3-yl]-2-dimethylamino-acetamide]",< 1000 nM
5,"C[C@H]1C[C@@H](NC(C)(C)CO)CN(c2ccc(C(F)(F)F)c3nccnc23)C1 [Compound 252, 2-methyl-2-[[(3R,5S)-5-methyl-1-[8-(trifluoromethyl)quinoxalin-5-yl]piperidin-3-yl]amino]propan-1-ol]",1000 to 10000 nM
6,"C[C@@H]1CN(c2ccnc3nccnc23)C[C@H](CN2CCNCC2)O1 [Compound 48, (2R,6S)-2-methyl-6-(piperazin-1-ylmethyl)-4-(pyrido[2,3-b]pyrazin-8-yl)morpholine]",1000 to 10000 nM
7,"CC1(C)C[C@@H](NC(=O)CO)CN(c2ccc(C#N)c3nccnc23)C1 [Compound 218, N-[(3R)-1-(8-cyanoquinoxalin-5-yl)-5,5-dimethylpiperidin-3-yl]-2-hydroxyacetamide]",1000 to 10000 nM
8,"C[C@@H]1CN(c2ccc(C#N)c3nccnc23)C[C@H](C(=O)NC2CCN(C)CC2)O1 [Compound 468, (2R,6R)-4-(8-cyanoquinoxalin-5-yl)-6-methyl-N-(1-methylpiperidin-4-yl)morpholine-2-carboxamide]",< 1000 nM
9,"C[C@H]1C[C@@H](NC(=O)CC2CCN(C)CC2)CN(c2ccc(C#N)c3nccnc23)C1 [Compound 232, N-[(3R,5S)-1-(8-cyanoquinoxalin-5-yl)-5-methylpiperidin-3-yl]-2-(1-methylpiperidin-4-yl)acetamide]",< 1000 nM
10,"C[C@H]1C[C@@H](NC(=O)Cn2cccn2)CN(c2ccnc3nccnc23)C1 [Compound 170, N-[(3R,5S)-5-methyl-1-[pyrido[2,3-b]pyrazin-8-yl]piperidin-3-yl]-2-(1H-pyrazol-1-yl)acetamidw]",> 10000 nM
11,"C[C@H]1C[C@@H](NC(=O)CC2CNC2)CN(c2ccc(C(F)F)c3ncccc23)C1 [Compound 312, 2-(azetidin-3-yl)-N-[(3R,5S)-1-[8-(difluoromethyl)quinolin-5-yl]-5-methylpiperidin-3-yl]acetamide]",1000 to 10000 nM
12,"CC(O)C(=O)N[C@@H]1C[C@H](C)CN(c2ccc(C(F)(F)F)c3nccnc23)C1 (stereo partly drawn) [Compound 292, 2-hydroxy-N-[(3R,5S)-5-methyl-1-[8-(trifluoromethyl)quinoxalin-5-yl]piperidin-3-yl]propanamide]",1000 to 10000 nM
13,"C[C@H]1C[C@@H](NC(=O)CN2CCN(C)CC2)CN(c2ccc(C#N)c3nccnc23)C1 [Compound 109, N-[(3R,5S)-1-(8-cyanoquinoxalin-5-yl)-5-methylpiperidin-3-yl]-2-(4-methylpiperazin-1-yl)acetamide]",< 1000 nM
14,"C[C@H]1C[C@@H](NC(=O)C2CCCN2C)CN(c2ccc(C#N)c3nccnc23)C1 (stereo partly drawn) [Compound 171, N-[(3R,5S)-1-(8-cyanoquinoxalin-5-yl)-5-methylpiperidin-3-yl]-1-methylpyrrolidine-2-carboxamide]",< 1000 nM
15,"CN1CC(CC(=O)NC2CC(C(F)(F)F)CN(c3ccc(C#N)c4ncccc34)C2)C1 (racemic) [Compound 490, cis-N-[(1-(8-Cyano-quinolin-5-yl)-5-trifluoromethyl-piperidin-3-yl]-2-(1-methyl-azetidin-3-yl)-acetamide]",< 1000 nM

# Source: US10947213B1 (Merck Patent GmbH, priority 2015, dated 2021)
